The results in this text go back to patent publication US9168247B2, “Beta carboline derivatives useful in the treatment of proliferative disorders” (FACULTES UNIVERSITAIRES NOTRE DAME DE LA PAIX, priority 2010, dated 2015).

Molecules are shown by their SMILES.

One assay has as its system U373 cells. The experiment in a line: Cellular imaging (videomicroscopy) of cultured U373 cells: antiproliferative class and global growth ratio. Further details: key to Anti proliferative class / anti-proliferative class-GGR: class I: actually cytostatic for 3 days (<10% of cell death at the 3rd day); class II: cyctostatic but becomes cytotoxic with <10% cell death on the 2nd day, and >20% of cell death on the 3rd day; class III: cytostatic but rapidly becomes cytotoxic with <10% cell death on the 1st day, >20% of cell death on the 2nd day and >50% of cell death on the 3rd day; class IV: cytotoxic (>50% of cell death on the first day). It counts as cell-based, human. The note with it: for global growth ratio (GGR): GG treated cells/GG control cells, 72 h after drug addition, drug at its IC50 (MTT-test determined); for anti-proliferative class-GGR: Table 4; for Anti proliferative class: cellular imaging of cultured U373 cells over three consecutive days. Put shortly:
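U373-MG glioma cells seeded at low density, exposed or not to compound […], filmed by videomicroscopy for 72 h, in quadruplicate. Cells counted on first (0 h) and last (72 h) images; GGR = final/initial count, reported as GGR treated/GGR control.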
For orientation: Tetrazolium assays rely on reduction of a dye to a coloured formazan, in cell work by metabolically active cells.

Another assay deals with U373 glioma cells. The assay is described as follows: MTT test, overall cell growth, U373. It counts as cell-based, human. The note with it: 72 hours of incubation. The essentials: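 Glioma (Hs683, T98G, U373) and oesophageal (OE21, OE33) lines seeded at 5,000–8,000 cells/well, treated 24 h later with compound at 1×10^−8 to 1×10^−4 M for 72 h at 37 °C, in sestuplicate.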

`Cc1c2c(cc[n+]1Cc1ccccc1)c1ccc(OCc3ccccc3)cc1n2Cc1ccccc1.[Br-]` [CV21/JR95, 1-methyl-2-benzyl-7-benzyloxy-9-benzyl-β-carbolin-2-ium bromide]: in the assay with U373 cells, the “global growth ratio (GGR)” value was determined as 0.4, the “anti-proliferative class-GGR” value was “(I) (class I: actually cytostatic for 3 days (<10% of cell death at the 3rd day))” and the Anti proliferative class entry was “I (class I: actually cytostatic for 3 days (<10% of cell death at the 3rd day))”. Further, the midpoint of inhibition with U373 glioma cells (Homo sapiens, U373 MG), the IC50, lay at 0.44 ± 0.01 µM.

With `COCCOc1ccc2c(c1)[nH]c1c(C)nccc12` [JR220], in the assay with U373 cells, the “global growth ratio (GGR)” value worked out at 0.2, the “anti-proliferative class-GGR” value is recorded as “(I) (class I: actually cytostatic for 3 days (<10% of cell death at the 3rd day))” and the Anti proliferative class entry was “I (class I: actually cytostatic for 3 days (<10% of cell death at the 3rd day))”. In the assay on U373 glioma cells, the IC50 (usually the concentration that inhibits the measured activity by half) stood at 64 ± 4 µM.

`Cc1nccc2c3ccc(OCc4ccccc4)cc3n(Cc3ccccc3)c12` [CV9/JR84, 1-methyl-7-benzyloxy-9-benzyl-β-carboline]: in the assay with U373 cells, the “global growth ratio (GGR)” value was 0.3, the “anti-proliferative class-GGR” value is listed as “(II)” and the Anti proliferative class entry is on record as “II”. Moreover, the midpoint of inhibition in the assay on U373 glioma cells (Homo sapiens, U373 MG), the IC50, lay at 18 ± 2 µM.

`Cc1nccc2c1[nH]c1cc(OCc3cccnc3)ccc12` [JR212]: in the assay with U373 cells, the “global growth ratio (GGR)” value is on record as 0.3, the “anti-proliferative class-GGR” value is “(I) (class I: actually cytostatic for 3 days (<10% of cell death at the 3rd day))” and the Anti proliferative class result was “I (class I: actually cytostatic for 3 days (<10% of cell death at the 3rd day))”. Further, the IC50 with U373 glioma cells amounted to 24 ± 1 µM.
